# According to patent US11149047B2, “Aryl imidazoles for treatment of cancer” (Aptose Biosciences Inc., priority 2017, dated 2021):
# Experiments:
# [1] = test system: BIK, BAD, MCL-1 in Raji/COMPOUND IR cells; experiment: Western blot of proteins involved in apoptosis; format: cell-based, human
# Source text: In order to delineate which effects of COMPOUND I are most closely linked to sensitivity for this drug, a subline of the Raji Burkitt's lymphoma cell line that had acquired resistance (Raji/COMPOUND IR) as a result of repeated exposure to progressively higher concentrations of COMPOUND I over a period of 6 months was developed. Resistance evolved slowly and progressively without an abrupt change at any point during the selection process. […] This is in the same range as has been reported for freshly isolated AML blasts and CLL cells. Zhang et al., “Inhibition of c-Myc by ATPO-COMPOUND I as an Innovative Therapeutic Approach to Induce Cell Cycle Arrest and Apoptosis in Acute Myeloid Leukemia [abstract],” Blood 2016; 128:1716; Kurtz et al., “Broad Activity of COMPOUND I in AML and other Hematologic Malignancies Correlates with KFL4 Expression Level [abstract],” Blood 2015; 126:1358, both of which are hereby incorporated by reference. […] The level of resistance remained stable for at least 3 months during culture in drug-free media (FIG. 4A). Raji/COMPOUND IR cells grew slightly faster than the parental cells but the difference was not statistically significant.
# [2] = test system: KLF4 and CDKN1A expression in AML cell lines; experiment: qRT-PCR of KLF4 and CDKN1A (p21) expression; format: cell-based
# Procedure: Cells were treated with vehicle or COMPOUND I at various concentrations for 24 hours or at a single concentration for 1, 3, 6, 12, and 24 hours before harvesting. Cells were lysed by QiaShredder columns (QIAGEN, catalog #79656), total RNA was isolated using QIAGEN RNeasy Plus Mini Kit (catalog #74134), and cDNA was synthesized utilizing Transcriptor Universal cDNA master mix (Roche, catalog #05893151001) and then used for qRT-PCR analysis using FastStart essential DNA probes master mix (Roche, catalog #06402682001) and Roche LightCycler96. Primer probe pairs were purchased from IDT (Table 5). Expression was calculated as fold change over vehicle treated samples after normalizing to GAPDH […].
# Previous studies reported upregulation of KLF4 and CDKN1A expression as a potential mechanism of APT0-COMPOUND I activity in tumors. […] The upregulation of CDKN1A mRNA increased with duration of exposure in all AML cell lines tested (FIGS. 15D and 15E). At later time points, CDKN1A expression began to decrease, likely due to increasing cell death. Induction of CDKN1A expression is typically associated with a subsequent G0-G1, cell-cycle arrest, which was observed following COMPOUND I treatment of solid tumor lines.
# [3] = test system: protein levels in MV4-11 cells; experiment: Reverse-phase protein array (RPPA) analysis; format: cell-based; details: 500 nmol/L, 6 h vs vehicle
# Procedure: MV4-11 cells were treated as for RNA sequencing (RNA-seq) analysis and whole-cell extracts were prepared for Western blotting. Samples were processed at MD Anderson Cancer Center reverse-phase protein array (RPPA) core facility (details at https://www.mdanderson.org/research/research-resources/core-facilities/functional-proteomics-rppa-core/rppa-process.html). Protein expression levels were averaged for 3 replicates and heatmaps were drawn using GraphPad Prism 7.
# To examine the effect of COMPOUND I on protein expression, MV4-11 cells were treated as above and analyzed by RPPA microarray to quantify >300 total and post-translationally modified proteins. […] Of note, there was an increase of cleaved caspase-7, which is indicative of apoptosis. GO analysis of the differentially expressed proteins was performed utilizing the Broad Molecular Signatures database. Significant GO terms included cell death and G1-S cell-cycle arrest pathways, a formal description of G0-G1 arrest, and consistent with the cell-cycle effects detected by flow cytometry and the RNA-seq analyses (FIG. 18C). An increase in E2F1, TP53, γH2AX, CHEK1 phos-S296, and CHEK2 phos-T68 supported the concept that DNA damage pathways are triggered by COMPOUND I treatment. In addition, increases in XBP1, HSPA5, and MAPK14 (p38) phos-T180/182 were observed, indicating ER or cellular stress ([…]; ref 15). DDR pathways can also signal through the MAPK pathway activating MAPK14 and MAPK8 (JNK), and cross-talk between the DDR pathway and ER stress is a well-established phenomenon although it is unclear which pathway represents the initiating event. A significant portion of the differentially expressed proteins and mRNAs are target genes of MYC oncoprotein, which is known to be an integral part of both cell-cycle and apoptotic pathway regulation.
# KG-1 AML cells = experiment: Uptake and efflux assay by mass spectrometry; format: in vitro ADME; details: exposed 1 or 6 hours, then drug-free media
# Procedure: Cells exposed to COMPOUND I were homogenized in acetonitrile containing 5 ng of deuterated COMPOUND I standard. Samples were analyzed at the UCSD Molecular Mass Spectrometry Facility employing an Agilent 1260 liquid chromatograph (LC) system coupled with a Thermo LCQdeca mass spectrometer using positive ion mode electrospray ionization as the ion source.
# Measurement of the kinetics of uptake and efflux of COMPOUND I in KG-1 AML cells determined by mass spectrometry indicated a gradual approach to steady state and a rapid initial efflux, but a very prolonged terminal efflux (FIGS. 20A and 20B). When KG-1 cells were exposed to COMPOUND I for either 1 or 6 hours and then placed in drug-free media, the efflux pattern consisted of a rapid phase occurring during the first 30 minutes followed by a prolonged terminal phase, such that significant amounts of COMPOUND I were retained in KG-1 cells for longer than 24 hours. […] (FIGS. 20C and 20D).
compound,measurement,setting,value
"Cc1[nH]c2ccc(F)cc2c1-c1nc2c3cccnc3c3ncccc3c2[nH]1 [COMPOUND I, 2-(5-fluoro-2-methyl-1H-indol-3-yl)-1H-imidazo[4,5-f][1,10]phenanthroline]","changes in BIK, BAD, MCL-1","[1]; 0.5 μM, 24 h",None of these changes were detected
same,induction of apoptosis,[1]; concentration that induced apoptosis in Raji sensitive cells,failed to trigger apoptosis
same,AML cell lines with upregulated KLF4 expression,"[2]; 24 hr treatment, FIG. 15A",4 of 6
same,CDKN1A (p21) expression,[2]; FIGS. 15B and 15C,induced in all AML cell lines in a concentration-dependent manner
same,fold change ACC_pS79,[3],1.302 fold
same,fold change ADAR1,[3],1.308 fold
same,fold change Bad_pS112,[3],1.55 fold
same,fold change BiP-GRP78,[3],1.29 fold
same,fold change CD29,[3],1.291 fold
same,fold change Caspase-3,[3],2.382 fold
same,fold change Caspase-7-cleaved,[3],1.671 fold
same,fold change Chk1,[3],1.433 fold
same,fold change Chk2_pT68,[3],1.312 fold
same,fold change Cyclin-B1,[3],0.5944 fold
same,fold change Cyclin-E1,[3],1.361 fold
same,fold change DM-Histone-H3,[3],2.008 fold
same,fold change DM-K9-Histone-H3,[3],2.003 fold
same,fold change E2F1,[3],1.423 fold
same,fold change Ets-1,[3],0.6034 fold
same,fold change H2AX_pS140,[3],4.196 fold
same,fold change Hif-1-alpha,[3],1.482 fold
same,fold change Histone-H3,[3],5.083 fold
same,fold change N-Ras,[3],1.397 fold
same,fold change NDRG1_pT346,[3],0.4566 fold
same,fold change PAI-1,[3],1.257 fold
same,fold change PAR,[3],2.707 fold
same,fold change PLK1,[3],0.4946 fold
same,fold change Pdcd-1L1,[3],1.262 fold
same,fold change Rb_pS807_S811,[3],0.6486 fold
same,fold change S6_pS240_S244,[3],0.6467 fold
same,fold change Syk,[3],1.433 fold
same,fold change Ubq-Histone-H2B,[3],1.375 fold
same,fold change XBP-1,[3],1.369 fold
same,fold change p38_pT180_Y182,[3],2.022 fold
same,fold change p53,[3],1.288 fold
same,duration of rapid efflux phase,KG-1 AML cells,30 min
same,retention of significant amounts in cells,KG-1 AML cells,> 24 h
